# Test results published in patent US20180256673A1, “METHODS FOR TREATING FUNGAL INFECTIONS” (priority 2015, published 2018).
# Like-named read-outs stand apart in the source and are kept apart here.
# How the values were obtained:
# [1] = system: C. parapsilosis vaginal isolates; test: Susceptibility testing of VVC clinical isolates at pH 7 and 4 (CLSI M27-A3); format: cell-based, Candida parapsilosis; conditions: 14 isolates, read-out: MIC90
# Candida albicans = test: Broth microdilution of invasive fungal isolates (CLSI M27-A3/M38-A2); format: cell-based; conditions: CLSI breakpoints
# [2] = system: C. albicans vaginal isolates; test: Susceptibility testing of VVC clinical isolates at pH 7 and 4 (CLSI M27-A3); format: cell-based, Candida albicans; conditions: for Number of isolates at MIC 0.25 μg/mL / Number of isolates at MIC 0.5 μg/mL / Number of isolates at MIC 1 μg/mL / Number of isolates at MIC 2 μg/mL / Number of isolates at MIC 4 μg/mL / Number of isolates at MIC ≥4 μg/mL / Number of isolates at MIC 0.125 μg/mL: 60 VVC isolates; for MIC / MIC90: Candida albicans; for MIC: read-out: MIC; for MIC90: 60 isolates, read-out: MIC90
# Candida tropicalis = test: Broth microdilution of invasive fungal isolates (CLSI M27-A3/M38-A2); format: cell-based; conditions: CLSI breakpoints
# [3] = system: C. tropicalis vaginal isolates; test: Susceptibility testing of VVC clinical isolates at pH 7 and 4 (CLSI M27-A3); format: cell-based; conditions: Candida tropicalis, 13 isolates, read-out: MIC90
smiles,measurement,setting,value
"OC(Cn1cncn1)(Cn1cncn1)c1ccc(F)cc1F [FLU, fluconazole]",MIC90,"[1]; pH 4, 24 h",8 µg/mL
same,MIC90,"[1]; pH 4, 48 h",> 64 µg/mL
same,MIC90,"[1]; pH 7, 48 h",32 µg/mL
same,% of isolates with fluconazole resistance,Candida albicans,2.0%
same,Number of isolates at MIC 0.25 μg/mL,"[2]; 24 h, pH 4",35
same,Number of isolates at MIC 0.5 μg/mL,"[2]; 24 h, pH 4",13
same,Number of isolates at MIC 1 μg/mL,"[2]; 24 h, pH 4",2
same,Number of isolates at MIC 2 μg/mL,"[2]; 24 h, pH 4",2
same,Number of isolates at MIC 4 μg/mL,"[2]; 24 h, pH 4",1
same,Number of isolates at MIC ≥4 μg/mL,"[2]; 24 h, pH 4",7
same,Number of isolates at MIC 0.125 μg/mL,"[2]; 24 h, pH 7",25
same,Number of isolates at MIC 0.25 μg/mL,"[2]; 24 h, pH 7",19
same,Number of isolates at MIC 0.5 μg/mL,"[2]; 24 h, pH 7",7
same,Number of isolates at MIC 1 μg/mL,"[2]; 24 h, pH 7",1
same,Number of isolates at MIC 2 μg/mL,"[2]; 24 h, pH 7",2
same,Number of isolates at MIC ≥4 μg/mL,"[2]; 24 h, pH 7",6
same,Number of isolates at MIC 0.5 μg/mL,"[2]; 48 h, pH 4",27
same,Number of isolates at MIC 1 μg/mL,"[2]; 48 h, pH 4",13
same,Number of isolates at MIC 2 μg/mL,"[2]; 48 h, pH 4",5
same,Number of isolates at MIC 4 μg/mL,"[2]; 48 h, pH 4",1
same,Number of isolates at MIC ≥4 μg/mL,"[2]; 48 h, pH 4",14
same,Number of isolates at MIC 0.125 μg/mL,"[2]; 48 h, pH 7",3
same,Number of isolates at MIC 0.25 μg/mL,"[2]; 48 h, pH 7",37
same,Number of isolates at MIC 0.5 μg/mL,"[2]; 48 h, pH 7",8
same,Number of isolates at MIC 1 μg/mL,"[2]; 48 h, pH 7",2
same,Number of isolates at MIC 2 μg/mL,"[2]; 48 h, pH 7",1
same,Number of isolates at MIC ≥4 μg/mL,"[2]; 48 h, pH 7",9
same,MIC,"[2]; 48 h, pH 4, fluconazole-resistant isolate 1, pH 4, 48 h",> 64 µg/mL
same,MIC,"[2]; 48 h, pH 4, fluconazole-resistant isolate 2, pH 4, 48 h",32 µg/mL
same,MIC,"[2]; 48 h, pH 4, fluconazole-resistant isolate 3, pH 4, 48 h",> 64 µg/mL
same,MIC,"[2]; 48 h, pH 4, fluconazole-resistant isolate 4, pH 4, 48 h",> 64 µg/mL
same,MIC,"[2]; 48 h, pH 4, fluconazole-resistant isolate 5, pH 4, 48 h",> 64 µg/mL
same,MIC,"[2]; 48 h, pH 4, fluconazole-resistant isolate 6, pH 4, 48 h",> 64 µg/mL
same,MIC,"[2]; 48 h, pH 4, fluconazole-resistant isolate 7, pH 4, 48 h",32 µg/mL
same,MIC,"[2]; 48 h, pH 4, fluconazole-resistant isolate 8, pH 4, 48 h",> 64 µg/mL
same,MIC,"[2]; 48 h, pH 4, fluconazole-resistant isolate 9, pH 4, 48 h",> 64 µg/mL
same,MIC,"[2]; 48 h, pH 4, fluconazole-resistant isolate 10, pH 4, 48 h",64 µg/mL
same,MIC,"[2]; 48 h, pH 7, fluconazole-resistant isolate 1, pH 7, 48 h",16 µg/mL
same,MIC,"[2]; 48 h, pH 7, fluconazole-resistant isolate 2, pH 7, 48 h",16 µg/mL
same,MIC,"[2]; 48 h, pH 7, fluconazole-resistant isolate 3, pH 7, 48 h",16 µg/mL
same,MIC,"[2]; 48 h, pH 7, fluconazole-resistant isolate 4, pH 7, 48 h",8 µg/mL
same,MIC,"[2]; 48 h, pH 7, fluconazole-resistant isolate 5, pH 7, 48 h",> 64 µg/mL
same,MIC,"[2]; 48 h, pH 7, fluconazole-resistant isolate 6, pH 7, 48 h",0.25 µg/mL
same,MIC,"[2]; 48 h, pH 7, fluconazole-resistant isolate 7, pH 7, 48 h",16 µg/mL
same,MIC,"[2]; 48 h, pH 7, fluconazole-resistant isolate 8, pH 7, 48 h",32 µg/mL
same,MIC,"[2]; 48 h, pH 7, fluconazole-resistant isolate 9, pH 7, 48 h",> 64 µg/mL
same,MIC,"[2]; 48 h, pH 7, fluconazole-resistant isolate 10, pH 7, 48 h",16 µg/mL
same,MIC90,"[2]; pH 4, 24 h",8 µg/mL
same,MIC90,"[2]; pH 4, 48 h",> 64 µg/mL
same,MIC90,"[2]; pH 7, 24 h",8 µg/mL
same,MIC90,"[2]; pH 7, 48 h",16 µg/mL
same,% of isolates with fluconazole resistance,Candida tropicalis,2.0%
same,MIC90,"[3]; pH 4, 24 h",8 µg/mL
same,MIC90,"[3]; pH 4, 48 h",> 64 µg/mL
same,MIC90,"[3]; pH 7, 24 h",2 µg/mL
same,MIC90,"[3]; pH 7, 48 h",64 µg/mL
